# Laboratory results as given in patent US10597388B2, “Pyridazinone herbicides” (FMC CORPORATION, priority 2014, dated 2020).
# Columns and labels:
# Assay type in all cases: in vivo
# [1] = system: ryegrass, Italian (Italian ryegrass, Lolium multiflorum); test: Test A greenhouse herbicide test, pre- and postemergence
# Method in brief: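 Seeds in loam–sand blend received a preemergence directed soil spray; plants at 2–10 cm, one- to two-leaf stage, received postemergence sprays. Compounds in a non-phytotoxic solvent with surfactant. After about 10 d in a greenhouse, injury rated visually versus untreated controls on a 0–100 scale (100 = complete control).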
# [2] = system: blackgrass (Alopecurus myosuroides); test: Test A greenhouse herbicide test, postemergence; settings: for Blackgrass plant response rating: 0 to 100 scale, 0 is no effect, 100 is complete control
# Method in brief: (§1)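 Pot-grown plants (loam soil/sand blend), 2–10 cm tall at the one- to two-leaf stage, received postemergence sprays of formulated test chemical. After about 10 d in the greenhouse, injury was rated visually against untreated controls on a 0 (no effect) to 100 (complete control) scale.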
# [3] = system: galium (catchweed bedstraw, Galium aparine); test: Test A greenhouse herbicide test, postemergence; settings: for Galium plant response rating: 0 to 100 scale, 0 is no effect, 100 is complete control
# Method in brief: as §1
# [4] = system: barnyardgrass (Echinochloa crus-galli); test: Test B flooded paddy test; settings: 250 g ai/ha, Flood; visual rating on scale of 0 to 100 where 0 is no effect and 100 is complete control; 13 to 15 d after treatment
# Method in brief: (§2)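 Plants grown to the 2-leaf stage. At treatment, pots were flooded to 3 cm above the soil, compound was applied directly to the paddy water, and that depth was held throughout. After 13 to 15 d in the greenhouse, response was rated visually against controls on a 0 (no effect) to 100 (complete control) scale.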
# [5] = system: ducksalad (Heteranthera limosa); test: Test B flooded paddy test; settings: 250 g ai/ha, Flood; visual rating on scale of 0 to 100 where 0 is no effect and 100 is complete control; 13 to 15 d after treatment
# Method in brief: as §2
# rice (Oryza sativa) = test: Test B flooded paddy test; settings: 250 g ai/ha, Flood; visual rating on scale of 0 to 100 where 0 is no effect and 100 is complete control; 13 to 15 d after treatment
# Method in brief: as §2
# [6] = system: sedge, umbrella (small-flower umbrella sedge, Cyperus difformis); test: Test B flooded paddy test; settings: 250 g ai/ha, Flood; visual rating on scale of 0 to 100 where 0 is no effect and 100 is complete control; 13 to 15 d after treatment
# Method in brief: as §2
# [7] = system: foxtail, giant (giant foxtail, Setaria faberii); test: Test C greenhouse herbicide test, pre- and postemergence
# Method in brief: (§3)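 Visual ratings on a 0 to 100 scale (0 = no effect, 100 = complete control) versus untreated controls, scored 13–15 d after treatment. Soil-applied preemergence to seeded loam/sand; foliar postemergence to 1- to 4-leaf plants (2–18 cm) in peat-vermiculite mix; compounds formulated in solvent plus surfactant.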
# [8] = system: galium (catchweed bedstraw, Galium aparine); test: as above
# Method in brief: as §3
# [9] = system: oilseed rape (Brassica napus); test: as above
# Method in brief: as §3
# [10] = Postemergence, 125 g ai/ha, 0 to 100 scale where 0 is no effect and 100 is complete control
# [11] = Postemergence, 500 g ai/ha, 0 to 100 scale, 0 is no effect, 100 is complete control
# [12] = Preemergence, 125 g ai/ha, 0 to 100 scale where 0 is no effect and 100 is complete control
# [13] = 125 g ai/ha, 0 to 100 scale where 0 is no effect and 100 is complete control
# [14] = Postemergence, 31 g ai/ha, 0 to 100 scale (0 no effect, 100 complete control)
# [15] = Postemergence, 125 g ai/ha, scale 0 to 100, 0 is no effect, 100 is complete control
# [16] = Postemergence, 250 g ai/ha, scale 0 to 100, 0 no effect, 100 complete control, 13 to 15 d
# [17] = Preemergence, 31 g ai/ha, scale 0 to 100, 0 is no effect, 100 is complete control
# [18] = Preemergence, 62 g ai/ha, scale 0 to 100, 0 is no effect, 100 is complete control
# [19] = Preemergence, 125 g ai/ha, scale 0 to 100, 0 is no effect, 100 is complete control
# [20] = Preemergence, 250 g ai/ha, scale 0 to 100, 0 no effect, 100 complete control
# [21] = postemergence, 62 g ai/ha, scale 0 to 100, 0 no effect, 100 complete control
# [22] = Postemergence, 500 g ai/ha, visual rating after approx. 10 d, 0 to 100 scale (0 no effect, 100 complete control)
# [23] = Preemergence, 500 g ai/ha, 0 to 100 scale where 0 is no effect and 100 is complete control
# [24] = 500 g ai/ha, visual rating after approx. 10 d, 0 to 100 scale (0 no effect, 100 complete control)
# [25] = Postemergence, 31 g ai/ha, scale 0 to 100 (0 no effect, 100 complete control)
# [26] = Postemergence, 62 g ai/ha, 0 to 100 scale (0 no effect, 100 complete control)
# [27] = postemergence, 125 g ai/ha, scale 0 to 100, 0 no effect, 100 complete control
SMILES,"Plant response rating, Ryegrass, Italian [1, 10]","Ryegrass, Italian plant response rating [1, 12]","Plant response rating, Blackgrass [2, 13]","Plant response rating, Galium [3, 13]","Plant response rating, Barnyardgrass [4]","Plant response rating, Ducksalad [5]","Plant response rating, Rice (rice (Oryza sativa))","Plant response rating, Sedge, Umbrella [6]","Plant response rating, Foxtail, Giant [7, 16]","Plant response rating, Foxtail, Giant [7, 17]","Plant response rating, Foxtail, Giant [7, 18]","Plant response rating, Foxtail, Giant [7, 19]","Plant response rating, Galium [8, 17]","Plant response rating, Galium [8, 18]","Plant response rating, Galium [8, 19]","Galium plant response rating [8, 20]","Plant response rating, Oilseed Rape [9, 17]","Plant response rating, Oilseed Rape [9, 18]","Plant response rating, Oilseed Rape [9, 19]","Oilseed Rape plant response rating [9, 20]",further results
CCc1sc2c(C)cc(C)cc2c1-c1c(O)c(C)nn(C)c1=O [Compound 57],70,90,30,100,0,0,0,0,95,45,80,90,80,90,95,98,0,0,30,60,"Ryegrass, Italian plant response rating [1, 11]: 90; Plant response rating, Ryegrass, Italian ([1]; Preemergence, 500 g ai/ha, 0 to 100 scale, 0 no effect, 100 complete control): 100; Blackgrass plant response rating ([2]; 500 g ai/ha): 60; Galium plant response rating ([3]; 500 g ai/ha): 100; Foxtail, Giant plant response rating [7, 14]: 70; Plant response rating, Foxtail, Giant [7, 15]: 85; Foxtail, Giant plant response rating [7, 20]: 100; Foxtail, Giant plant response rating [7, 21]: 70; Galium plant response rating [8, 14]: 95; Plant response rating, Galium [8, 15]: 95; Plant response rating, Galium [8, 16]: 100; Galium plant response rating [8, 21]: 95; Oilseed Rape plant response rating [9, 14]: 0; Plant response rating, Oilseed Rape [9, 15]: 0; Plant response rating, Oilseed Rape [9, 16]: 5; Oilseed Rape plant response rating [9, 21]: 0"
CC(=O)Oc1c(C)nn(C)c(=O)c1-c1c(C)sc2ccc(C(F)(F)F)cc12 [Compound 132],100,90,30,80,0,0,0,0,75,40,70,85,90,90,90,98,70,85,30,90,"Plant response rating, Ryegrass, Italian [1, 22]: 100; Plant response rating, Ryegrass, Italian [1, 23]: 90; Plant response rating, Blackgrass [2, 24]: 50; Plant response rating, Galium [3, 24]: 100; Plant response rating, Foxtail, Giant [7, 25]: 30; Foxtail, Giant plant response rating [7, 26]: 40; Foxtail, Giant plant response rating [7, 20]: 98; Foxtail, Giant plant response rating [7, 27]: 60; Plant response rating, Galium [8, 25]: 90; Galium plant response rating [8, 26]: 95; Plant response rating, Galium [8, 16]: 95; Galium plant response rating [8, 27]: 95; Plant response rating, Oilseed Rape [9, 25]: 5; Oilseed Rape plant response rating [9, 26]: 10; Plant response rating, Oilseed Rape [9, 16]: 40; Oilseed Rape plant response rating [9, 27]: 5"
CCC(=O)Oc1c(C)nn(C)c(=O)c1-c1ccc(F)c2ccccc12 [Compound 113],100,100,90,100,0,0,0,0,70,,,,100,90,98,98,0,0,60,90,"Plant response rating, Ryegrass, Italian [1, 22]: 100; Plant response rating, Ryegrass, Italian [1, 23]: 100; Plant response rating, Blackgrass [2, 24]: 90; Plant response rating, Galium [3, 24]: 100; Plant response rating, Foxtail, Giant [7, 25]: 20; Plant response rating, Foxtail, Giant [7, 15]: 30; Plant response rating, Galium [8, 25]: 95; Plant response rating, Galium [8, 15]: 95; Plant response rating, Galium [8, 16]: 95; Plant response rating, Oilseed Rape [9, 25]: 0; Plant response rating, Oilseed Rape [9, 15]: 0; Plant response rating, Oilseed Rape [9, 16]: 0"
CCC(=O)Oc1c(OC)nn(C)c(=O)c1-c1c(C)sc2ccc(Cl)cc12 [Compound 131],90,90,30,70,0,0,0,0,,35,85,90,85,90,95,95,20,40,85,80,"Plant response rating, Ryegrass, Italian [1, 22]: 90; Plant response rating, Ryegrass, Italian [1, 23]: 90; Plant response rating, Blackgrass [2, 24]: 50; Plant response rating, Galium [3, 24]: 100; Foxtail, Giant plant response rating [7, 20]: 98"
Cc1ccc2ccccc2c1-c1c(OC(=O)OC(C)C)c(C)nn(C)c1=O [Compound 72],100,100,70,90,0,0,0,0,85,60,70,85,90,90,95,95,30,35,80,80,"Ryegrass, Italian plant response rating [1, 11]: 100; Plant response rating, Ryegrass, Italian [1, 23]: 100; Blackgrass plant response rating ([2]; 500 g ai/ha): 90; Galium plant response rating ([3]; 500 g ai/ha): 100; Foxtail, Giant plant response rating [7, 14]: 50; Plant response rating, Foxtail, Giant [7, 15]: 75; Foxtail, Giant plant response rating [7, 20]: 85; Foxtail, Giant plant response rating [7, 21]: 70; Galium plant response rating [8, 14]: 80; Plant response rating, Galium [8, 15]: 95; Plant response rating, Galium [8, 16]: 95; Galium plant response rating [8, 21]: 95; Oilseed Rape plant response rating [9, 14]: 40; Plant response rating, Oilseed Rape [9, 15]: 20; Plant response rating, Oilseed Rape [9, 16]: 85; Oilseed Rape plant response rating [9, 21]: 35"
